Results from article PMC3021545, “Insulin Reduces Neuronal Excitability by Turning on GABAA Channels that Generate Tonic Current” (PLoS ONE, 2011).

Tested on: T1, insulin-induced high-affinity extrasynaptic GABAA channels (α5, γ2 containing; α5βγ2) of CA1 pyramidal neurons
T1 construct: gene Gabra5
Settings: insulin-treated (1 nM) slices; -60 mV; ambient GABA; 20-22 °C; inverse agonist

**Q.** For `CCOC(=O)c1ncn2c1[C@@H]1CCCN1C(=O)c1cc(OC)ccc1-2` [L655, 708], which “% inhibition at 5 μM” value is on record?
**A.** The value was 85±4%.
